According to the OligoGym collection:
Oligonucleotides are given in HELM: sugar(base)linkage, 5' to 3'; d 2'-deoxyribose, r ribose, m 2'-O-methylribose, p phosphate. ss, as = sense and antisense strand

Target: SOST
Experiment: reporter assay of Huesken 2005
Conditions: siRNA
Further: test concentration or dose not given here.

Substance	normalised inhibition (eCFP-eYFP dual reporter) [%]
RNA1{r(C)p.r(G)p.r(G)p.r(U)p.r(C)p.r(A)p.r(C)p.r(C)p.r(G)p.r(A)p.r(G)p.r(C)p.r(U)p.r(G)p.r(G)p.r(U)p.r(G)p.r(U)p.r(G)p.d(T)p.d(T)}|RNA2{r(C)p.r(A)p.r(C)p.r(A)p.r(C)p.r(C)p.r(A)p.r(G)p.r(C)p.r(U)p.r(C)p.r(G)p.r(G)p.r(U)p.r(G)p.r(A)p.r(C)p.r(C)p.r(G)p.d(G)p.d(C)}$$$RNA1{StrandType:ss}|RNA2{StrandType:as}$	52.2
RNA1{r(C)p.r(C)p.r(A)p.r(C)p.r(C)p.r(G)p.r(G)p.r(A)p.r(G)p.r(C)p.r(U)p.r(G)p.r(G)p.r(A)p.r(G)p.r(A)p.r(A)p.r(C)p.r(A)p.d(T)p.d(T)}|RNA2{r(U)p.r(G)p.r(U)p.r(U)p.r(C)p.r(U)p.r(C)p.r(C)p.r(A)p.r(G)p.r(C)p.r(U)p.r(C)p.r(C)p.r(G)p.r(G)p.r(U)p.r(G)p.r(G)p.d(A)p.d(G)}$$$RNA1{StrandType:ss}|RNA2{StrandType:as}$	86.7
RNA1{r(C)p.r(A)p.r(C)p.r(C)p.r(C)p.r(C)p.r(U)p.r(U)p.r(U)p.r(G)p.r(A)p.r(G)p.r(A)p.r(C)p.r(C)p.r(A)p.r(A)p.r(A)p.r(G)p.d(T)p.d(T)}|RNA2{r(C)p.r(U)p.r(U)p.r(U)p.r(G)p.r(G)p.r(U)p.r(C)p.r(U)p.r(C)p.r(A)p.r(A)p.r(A)p.r(G)p.r(G)p.r(G)p.r(G)p.r(U)p.r(G)p.d(G)p.d(T)}$$$RNA1{StrandType:ss}|RNA2{StrandType:as}$	72.2
RNA1{r(A)p.r(C)p.r(C)p.r(G)p.r(G)p.r(A)p.r(G)p.r(C)p.r(U)p.r(G)p.r(G)p.r(A)p.r(G)p.r(A)p.r(A)p.r(C)p.r(A)p.r(A)p.r(C)p.d(T)p.d(T)}|RNA2{r(G)p.r(U)p.r(U)p.r(G)p.r(U)p.r(U)p.r(C)p.r(U)p.r(C)p.r(C)p.r(A)p.r(G)p.r(C)p.r(U)p.r(C)p.r(C)p.r(G)p.r(G)p.r(U)p.d(G)p.d(G)}$$$RNA1{StrandType:ss}|RNA2{StrandType:as}$	83.3
RNA1{r(G)p.r(C)p.r(G)p.r(A)p.r(C)p.r(C)p.r(U)p.r(A)p.r(G)p.r(U)p.r(G)p.r(G)p.r(G)p.r(C)p.r(C)p.r(C)p.r(G)p.r(A)p.r(C)p.d(T)p.d(T)}|RNA2{r(G)p.r(U)p.r(C)p.r(G)p.r(G)p.r(G)p.r(C)p.r(C)p.r(C)p.r(A)p.r(C)p.r(U)p.r(A)p.r(G)p.r(G)p.r(U)p.r(C)p.r(G)p.r(C)p.d(C)p.d(A)}$$$RNA1{StrandType:ss}|RNA2{StrandType:as}$	66
RNA1{r(G)p.r(U)p.r(G)p.r(G)p.r(U)p.r(G)p.r(A)p.r(G)p.r(G)p.r(C)p.r(G)p.r(C)p.r(C)p.r(G)p.r(C)p.r(G)p.r(C)p.r(G)p.r(C)p.d(T)p.d(T)}|RNA2{r(G)p.r(C)p.r(G)p.r(C)p.r(G)p.r(C)p.r(G)p.r(G)p.r(C)p.r(G)p.r(C)p.r(C)p.r(U)p.r(C)p.r(A)p.r(C)p.r(C)p.r(A)p.r(C)p.d(C)p.d(G)}$$$RNA1{StrandType:ss}|RNA2{StrandType:as}$	65.2
RNA1{r(C)p.r(G)p.r(U)p.r(G)p.r(U)p.r(C)p.r(C)p.r(G)p.r(A)p.r(G)p.r(U)p.r(A)p.r(C)p.r(A)p.r(G)p.r(C)p.r(U)p.r(G)p.r(C)p.d(T)p.d(T)}|RNA2{r(G)p.r(C)p.r(A)p.r(G)p.r(C)p.r(U)p.r(G)p.r(U)p.r(A)p.r(C)p.r(U)p.r(C)p.r(G)p.r(G)p.r(A)p.r(C)p.r(A)p.r(C)p.r(G)p.d(T)p.d(C)}$$$RNA1{StrandType:ss}|RNA2{StrandType:as}$	54.8
RNA1{r(U)p.r(A)p.r(G)p.r(U)p.r(G)p.r(G)p.r(A)p.r(G)p.r(G)p.r(G)p.r(C)p.r(C)p.r(A)p.r(G)p.r(G)p.r(G)p.r(G)p.r(U)p.r(G)p.d(T)p.d(T)}|RNA2{r(C)p.r(A)p.r(C)p.r(C)p.r(C)p.r(C)p.r(U)p.r(G)p.r(G)p.r(C)p.r(C)p.r(C)p.r(U)p.r(C)p.r(C)p.r(A)p.r(C)p.r(U)p.r(A)p.d(C)p.d(A)}$$$RNA1{StrandType:ss}|RNA2{StrandType:as}$	72
RNA1{r(A)p.r(G)p.r(G)p.r(U)p.r(G)p.r(C)p.r(G)p.r(C)p.r(C)p.r(U)p.r(G)p.r(G)p.r(U)p.r(G)p.r(G)p.r(C)p.r(C)p.r(U)p.r(C)p.d(T)p.d(T)}|RNA2{r(G)p.r(A)p.r(G)p.r(G)p.r(C)p.r(C)p.r(A)p.r(C)p.r(C)p.r(A)p.r(G)p.r(G)p.r(C)p.r(G)p.r(C)p.r(A)p.r(C)p.r(C)p.r(U)p.d(T)p.d(G)}$$$RNA1{StrandType:ss}|RNA2{StrandType:as}$	71.2
RNA1{r(C)p.r(G)p.r(C)p.r(C)p.r(U)p.r(G)p.r(C)p.r(U)p.r(G)p.r(C)p.r(C)p.r(C)p.r(A)p.r(A)p.r(C)p.r(G)p.r(C)p.r(C)p.r(A)p.d(T)p.d(T)}|RNA2{r(U)p.r(G)p.r(G)p.r(C)p.r(G)p.r(U)p.r(U)p.r(G)p.r(G)p.r(G)p.r(C)p.r(A)p.r(G)p.r(C)p.r(A)p.r(G)p.r(G)p.r(C)p.r(G)p.d(C)p.d(G)}$$$RNA1{StrandType:ss}|RNA2{StrandType:as}$	64.6
RNA1{r(G)p.r(G)p.r(G)p.r(C)p.r(G)p.r(G)p.r(C)p.r(C)p.r(U)p.r(C)p.r(C)p.r(C)p.r(C)p.r(A)p.r(C)p.r(C)p.r(A)p.r(C)p.r(C)p.d(T)p.d(T)}|RNA2{r(G)p.r(G)p.r(U)p.r(G)p.r(G)p.r(U)p.r(G)p.r(G)p.r(G)p.r(G)p.r(A)p.r(G)p.r(G)p.r(C)p.r(C)p.r(G)p.r(C)p.r(C)p.r(C)p.d(T)p.d(C)}$$$RNA1{StrandType:ss}|RNA2{StrandType:as}$	64.3
RNA1{r(C)p.r(G)p.r(C)p.r(G)p.r(C)p.r(G)p.r(C)p.r(G)p.r(C)p.r(G)p.r(C)p.r(A)p.r(A)p.r(G)p.r(G)p.r(U)p.r(G)p.r(C)p.r(G)p.d(T)p.d(T)}|RNA2{r(C)p.r(G)p.r(C)p.r(A)p.r(C)p.r(C)p.r(U)p.r(U)p.r(G)p.r(C)p.r(G)p.r(C)p.r(G)p.r(C)p.r(G)p.r(C)p.r(G)p.r(C)p.r(G)p.d(G)p.d(C)}$$$RNA1{StrandType:ss}|RNA2{StrandType:as}$	60.6
RNA1{r(U)p.r(C)p.r(A)p.r(A)p.r(G)p.r(G)p.r(A)p.r(C)p.r(U)p.r(U)p.r(C)p.r(G)p.r(G)p.r(G)p.r(A)p.r(C)p.r(C)p.r(G)p.r(A)p.d(T)p.d(T)}|RNA2{r(U)p.r(C)p.r(G)p.r(G)p.r(U)p.r(C)p.r(C)p.r(C)p.r(G)p.r(A)p.r(A)p.r(G)p.r(U)p.r(C)p.r(C)p.r(U)p.r(U)p.r(G)p.r(A)p.d(G)p.d(C)}$$$RNA1{StrandType:ss}|RNA2{StrandType:as}$	61.3
RNA1{r(G)p.r(A)p.r(A)p.r(C)p.r(G)p.r(G)p.r(A)p.r(G)p.r(G)p.r(G)p.r(C)p.r(G)p.r(G)p.r(C)p.r(C)p.r(U)p.r(C)p.r(C)p.r(C)p.d(T)p.d(T)}|RNA2{r(G)p.r(G)p.r(G)p.r(A)p.r(G)p.r(G)p.r(C)p.r(C)p.r(G)p.r(C)p.r(C)p.r(C)p.r(U)p.r(C)p.r(C)p.r(G)p.r(U)p.r(U)p.r(C)p.d(T)p.d(C)}$$$RNA1{StrandType:ss}|RNA2{StrandType:as}$	52.6
